From patent US20080166694A1, “Plant tissue packaging process” (priority 2007, published 2008) come the findings set out here.

One experiment relates to bananas. Briefly: Addition of ozone to controlled-atmosphere and regular-atmosphere containers of bananas. To be noted: ozone added. How it is done:
In another embodiment, a controlled-atmosphere shipping container is filled with bananas packaged in perforated bags, and ozone is added to the controlled atmosphere. If a non-ozonated controlled-atmosphere container is well sealed, ethylene will accumulate, offsetting the benefit of slowed respiration afforded by the controlled atmosphere.

The test system of another experiment is Cavendish bananas. Briefly: Storage of harvested Cavendish bananas in banavac polyethylene bags in containers with or without ozone. To be noted: Container 7: 200 to 300 parts per billion ozone in surrounding atmosphere; polyethylene bags tied closed; regular atmosphere (20.8 percent oxygen); 56 days of storage; versus Container 8 without ozone. An excerpt: Experimental conditions included loading harvested Cavendish bananas in polyethylene bags (known as “banavac” bags) into two containers, both having a regular atmosphere (containing 20.8 percent oxygen), with vents partially opened for the first four weeks and completely closed for the last four weeks of the experimental period. The experimental difference between the containers was the maintenance of 200 to 300 parts per billion of ozone in Container 7, and the absence of ozone from Container 8.
Container 8 in the experiment detailed in FIG. 3 was loaded with bananas in modified atmosphere packaging (here, polyethylene bags tied closed with a knot). The bananas were stored in the container without added ozone. At 56 days after harvest, all of the bananas were spoiled to the point of liquefaction.
Container 7 in the experiment detailed in FIG. 3 was loaded with bananas in modified atmosphere packaging (here also, polyethylene bags tied closed with a knot). According to an embodiment of the present invention, the bags of bananas in Container 7 were exposed to a surrounding atmosphere containing an ozone level of 200 to 300 parts per billion.

Turning to `O=[O+][O-]` [ozone], in the experiment on bananas, the “climacteric ripening of bananas” value is reported as “delay climacteric ripening of bananas” and the “overall ethylene levels in containers” value is “reduce overall ethylene levels”. In the experiment with Cavendish bananas, the “condition of the bananas after storage” value is “markedly superior condition compared to that of the control bananas”.
